Molecular target: SIRT6 enzyme (Homo sapiens, UniProt Q8N6T7)
Experiment: Measurement of deacetylation activity (SIRT6, AlphaLISA, H3K9(Ac) peptide)
Type: biochemical
Details: SIRT6 25 ng/mL, H3K9(Ac) biotin peptide 2 nM, NAD 10 μM, room temperature 30 minutes, duplicate
Protocol: The reaction was performed in duplicate using a white 384-well plate (3824, Corning or 6008350, PerkinElmer) at a final reaction liquid volume of 20.1 μL. As a control for calculating the enzyme activity, the enzyme-added (DMSO (+)) and enzyme-free (DMSO (−)) wells were set at n=8. Test substances (examples of final concentrations: 0.046, 0.14, 0.41, 1.2, 3.7, 11, 33, and 100 μM) at a concentration of 100 times or 0.1 μL of DMSO was dispensed into the plate and 5 μL of SIRT6 enzyme (prepared by Daiichi Sankyo RD Novare Co., Ltd., final concentration: 25 ng/mL) diluted with an assay buffer (10 mM Tris-HCl pH of 8.0, 0.1% BSA, 0.01% Tween 20, 1 mM DTT, 12.5% Glycerol) was added thereto. The enzymatic reaction was started by adding 5 μL of a mixed solution [Lys(Ac)9]-Histone H3 (1-21)-NH2, H3K9 (Ac), biotin-labeled, amide (AnaSpec, AS-64190, final concentration: 2 nM) and β-nicotinamide adenine dinucleotide (Sigma-Aldrich, N8285-15VL, final concentration: 10 μM), and the reaction was performed at room temperature for 30 minutes. 10 μL of a mixed solution of nicotinamide (Sigma-Aldrich, 72340-100G, final concentration: 100 mM) prepared with AlphaLISA Epigenetics Buffer (PerkinElmer, AL008C), AlphaLISA Anti-unmodified Histone H3 Lysine 9/Lysine 27 (H3K9/K27) Acceptor Beads (PerkinElmer, AL138, final concentration: 10 μg/mL), and AlphaScreen Streptavidin Donor beads (PerkinElmer, 6760002, final concentration: 5 μg/mL) was added thereto, the reaction was performed at room temperature for 60 minutes and then stopped, and acetylation was detected. The emission intensity was measured by EnVision (PerkinElmer).
The relative enzyme activity (%) of the test substance was calculated by the following equation. Relative enzyme activity (%)=[(emission intensity of test substance-added well−emission intensity of DMSO (−) well)/(emission intensity of DMSO (+) well−emission intensity of DMSO (−) well)]×100
The EC150 (the concentration of the compound showing a relative enzyme activity of 150%) of the test substance was calculated based on Sigmoidal dose-response (variable slope) of GraphPad Prism (GraphPad Software) using the value of the relative enzyme activity (%) at each concentration, and the results are listed in Tables 1-1 to 1-5.

Sequence of SIRT6 enzyme (Q8N6T7 whole entry, species assumed): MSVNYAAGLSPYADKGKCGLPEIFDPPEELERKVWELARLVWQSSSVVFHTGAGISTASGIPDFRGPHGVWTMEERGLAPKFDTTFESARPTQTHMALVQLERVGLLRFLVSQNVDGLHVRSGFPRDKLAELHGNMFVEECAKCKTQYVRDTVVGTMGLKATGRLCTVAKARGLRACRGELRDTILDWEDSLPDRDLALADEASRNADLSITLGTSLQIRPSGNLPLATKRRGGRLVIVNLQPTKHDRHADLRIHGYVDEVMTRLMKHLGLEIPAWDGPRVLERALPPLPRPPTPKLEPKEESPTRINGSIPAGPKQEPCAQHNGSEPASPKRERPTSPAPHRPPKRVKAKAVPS

Row | Structure (SMILES) | EC150 (the concentration of the compound showing a relative enzyme activity of 150%)
1 | C[C@H]1NC(=O)N(c2nc3c(s2)[C@@H]2COC[C@H](C3)N2c2nc(-c3ccc(F)cc3)no2)C1=O [Example 20, (5R)-3-{(4S,8S)-10-[3-(4-fluorophenyl)-1,2,4-oxadiazol-5-yl]-4,7,8,9-tetrahydro-5H-4,8-epiminooxocino[5,4-d][1,3]thiazol-2-yl}-5-methylimidazolidine-2,4-dione] | 2.6 μm
2 | CNC(=O)Nc1nc2c(s1)[C@@H]1COC[C@H](C2)N1c1nnc(-c2cccc(C(=O)C3CC3)c2)o1 [Example 21, N-[(4S,8S)-10-{5-[3-(cyclopropanecarbonyl)phenyl]-1,3,4-oxadiazol-2-yl}-4,7,8,9-tetrahydro-5H-4,8-epiminooxocino[5,4-d][1,3]thiazol-2-yl]-N′-methylurea] | 1.5 μm
3 | CNC(=O)Nc1nc2c(s1)[C@@H]1COC[C@H](C2)N1c1nnc(-c2cccc(OC(F)F)c2)o1 [Example 22, N-[(4S,8S)-10-{5-[3-(difluoromethoxy)phenyl]-1,3,4-oxadiazol-2-yl}-4,7,8,9-tetrahydro-5H-4,8-epiminooxocino[5,4-d][1,3]thiazol-2-yl]-N′-methylurea] | 1.3 μm
4 | O=C(Nc1nc2c(s1)CN(c1nc(C3CCC(F)(F)CC3)no1)CC2)N[C@@H]1CCC[C@H]1O [Example 25, N-{5-[3-(4,4-difluorocyclohexyl)-1,2,4-oxadiazol-5-yl]-4,5,6,7-tetrahydro[1,3]thiazolo[5,4-c]pyridin-2-yl}-N′-[(1R,2R)-2-hydroxycyclopentyl]urea] | 0.81 μm
5 | O=C(Nc1nc2c(s1)CN(c1nc(C3CCC(F)(F)CC3)no1)CC2)N[C@H]1CC[C@H](O)CC1 [Example 26, N-{5-[3-(4,4-difluorocyclohexyl)-1,2,4-oxadiazol-5-yl]-4,5,6,7-tetrahydro[1,3]thiazolo[5,4-c]pyridin-2-yl}-N′-[(1r,4r)-4-hydroxycyclohexyl]urea] | 0.81 μm
6 | COCCCNC(=O)Nc1nc2c(s1)CN(c1nc(C3CCC(F)(F)CC3)no1)CC2 [Example 27, N-{5-[3-(4,4-difluorocyclohexyl)-1,2,4-oxadiazol-5-yl]-4,5,6,7-tetrahydro[1,3]thiazolo[5,4-c]pyridin-2-yl}-N′-(3-methoxypropyl)urea] | 2.1 μm
7 | CC(C)(O)CNC(=O)Nc1nc2c(s1)CN(c1nc(C3CCCC(F)(F)C3)no1)CC2 (stereo not drawn) [Example 28, N-{5-[3-(3,3-difluorocyclohexyl)-1,2,4-oxadiazol-5-yl]-4,5,6,7-tetrahydro[1,3]thiazolo[5,4-c]pyridin-2-yl}-N′-(2-hydroxy-2-methylpropyl)urea] | 2.1 μm
8 | O=C(NC[C@H]1COCCO1)Nc1nc2c(s1)[C@@H]1COC[C@H](C2)N1c1nc(-c2ccc(F)cc2)no1 [Example 29, N-{[(2S)-1,4-dioxan-2-yl]methyl}-N′-{(4S,8S)-10-[3-(4-fluorophenyl)-1,2,4-oxadiazol-5-yl]-4,7,8,9-tetrahydro-5H-4,8-epiminooxocino[5,4-d][1,3]thiazol-2-yl}urea] | 0.69 μm
9 | CS(=O)(=O)N1CC2Cc3nc(NC(=O)NC4CCOCC4)sc3C(C1)N2c1nc(-c2ccc(F)cc2)no1 (stereo not drawn) [Example 30, N-{10-[3-(4-fluorophenyl)-1,2,4-oxadiazol-5-yl]-6-(methanesulfonyl)-4,5,6,7,8,9-hexahydro-4,8-epimino[1,3]thiazolo[5,4-d]azocin-2-yl}-N′-oxan-4-ylurea] | 0.18 μm
10 | CNC(=O)Nc1nc2c(s1)C1CN(S(C)(=O)=O)CC(C2)N1c1nc(-c2ccc(F)cc2)no1 (stereo not drawn) [Example 31, N-{10-[3-(4-fluorophenyl)-1,2,4-oxadiazol-5-yl]-6-(methanesulfonyl)-4,5,6,7,8,9-hexahydro-4,8-epimino[1,3]thiazolo[5,4-d]azocin-2-yl}-N′-methylurea] | 2.5 μm
11 | CNC(=O)Nc1nc2c(s1)C1CN(C(=O)OC(C)C)CC(C2)N1c1nc(-c2ccc(F)cc2)no1 (stereo not drawn) [Example 32, Propan-2-yl 10-[3-(4-fluorophenyl)-1,2,4-oxadiazol-5-yl]-2-[(methylcarbamoyl)amino]-4,7,8,9-tetrahydro-4,8-epimino[1,3]thiazolo[5,4-d]azocine-6(5H)-carboxylate] | 0.27 μm
12 | O=C(NCCOCCO)Nc1nc2c(s1)CN(c1nc(C3CCC(F)(F)CC3)no1)CC2 [Example 34, N-{5-[3-(4,4-difluorocyclohexyl)-1,2,4-oxadiazol-5-yl]-4,5,6,7-tetrahydro[1,3]thiazolo[5,4-c]pyridin-2-yl}-N′-[2-(2-hydroxyethoxy)ethyl]urea] | 1.9 μm
13 | O=C(Nc1nc2c(s1)CN(c1nc(C3CCC(F)(F)C3)no1)CC2)N[C@H]1C[C@H](O)C1 (stereo partly drawn) [Example 35, N-{5-[3-(3,3-difluorocyclopentyl)-1,2,4-oxadiazol-5-yl]-4,5,6,7-tetrahydro[1,3]thiazolo[5,4-c]pyridin-2-yl}-N′-[(1r,3r)-3-hydroxycyclobutyl]urea] | 1 μm
14 | CNC(=O)Nc1nc2c(s1)CN(c1nc(C3CCCC(F)(F)C3)no1)CC2 (stereo not drawn) [Example 36, N-{5-[3-(3,3-difluorocyclohexyl)-1,2,4-oxadiazol-5-yl]-4,5,6,7-tetrahydro[1,3]thiazolo[5,4-c]pyridin-2-yl}-N′-methylurea] | 1.9 μm
15 | O=C(Nc1nc2c(s1)[C@@H]1COC[C@H](C2)N1c1nc(C2(C(F)(F)F)CC2)no1)N[C@@H]1CCOC1 [Example 37, N-[(3R)-oxolan-3-yl]-N′-[(4S,8S)-10-{3-[1-(trifluoromethyl)cyclopropyl]-1,2,4-oxadiazol-5-yl}-4,7,8,9-tetrahydro-5H-4,8-epiminooxocino[5,4-d][1,3]thiazol-2-yl]urea] | 4.6 μm
16 | COc1ccc2oc(N3[C@@H]4COC[C@H]3c3sc(NC(=O)N[C@H](C)CO)nc3C4)nc2c1 [Example 38, N-[(2R)-1-hydroxypropan-2-yl]-N′-[(4S,8S)-10-(5-methoxy-1,3-benzoxazol-2-yl)-4,7,8,9-tetrahydro-5H-4,8-epiminooxocino[5,4-d][1,3]thiazol-2-yl]urea] | 2 μm
17 | C[C@H](CO)NC(=O)Nc1nc2c(s1)[C@@H]1COC[C@H](C2)N1c1nc2cc(F)ccc2o1 [Example 39, N-[(4S,8S)-10-(5-fluoro-1,3-benzoxazol-2-yl)-4,7,8,9-tetrahydro-5H-4,8-epiminooxocino[5,4-d][1,3]thiazol-2-yl]-N′-[(2R)-1-hydroxypropan-2-yl]urea] | 2.5 μm
18 | CCOc1ccc2oc(N3[C@@H]4COC[C@H]3c3sc(NC(=O)NCC(C)(C)O)nc3C4)nc2c1 [Example 40, N-[(4S,8S)-10-(5-ethoxy-1,3-benzoxazol-2-yl)-4,7,8,9-tetrahydro-5H-4,8-epiminooxocino[5,4-d][1,3]thiazol-2-yl]-N′-(2-hydroxy-2-methylpropyl)urea] | 3.1 μm
19 | CN(C)c1ccc2oc(N3[C@@H]4COC[C@H]3c3sc(NC(=O)NCC(C)(C)O)nc3C4)nc2c1 [Example 41, N-{(4S,8S)-10-[5-(dimethylamino)-1,3-benzoxazol-2-yl]-4,7,8,9-tetrahydro-5H-4,8-epiminooxocino[5,4-d][1,3]thiazol-2-yl}-N′-(2-hydroxy-2-methylpropyl)urea] | 2.5 μm
20 | C[C@H](CO)NC(=O)Nc1nc2c(s1)[C@@H]1COC[C@H](C2)N1c1nc2cc(F)c(F)cc2o1 [Example 42, N-[(4S,8S)-10-(5,6-difluoro-1,3-benzoxazol-2-yl)-4,7,8,9-tetrahydro-5H-4,8-epiminooxocino[5,4-d][1,3]thiazol-2-yl]-N′-[(2R)-1-hydroxypropan-2-yl]urea] | 1.3 μm
21 | CC(C)CNC(=O)Nc1nc2c(s1)[C@@H]1COC[C@H](C2)N1c1nc2cc(S(C)(=O)=O)ccc2o1 [Example 43, N-{(4S,8S)-10-[5-(methanesulfonyl)-1,3-benzoxazol-2-yl]-4,7,8,9-tetrahydro-5H-4,8-epiminooxocino[5,4-d][1,3]thiazol-2-yl}-N′-(2-methylpropyl)urea] | 1.5 μm

Source: patent US11981686B2, “Urea compound having substituent” (DAIICHI SANKYO COMPANY, LIMITED, priority 2019, dated 2024)
